{"source": "patent US20060211764A1", "about": "“Cell activator, process for producing cell activator and apparatus therefor” (priority 2002, published 2006)", "key": {"pancreatic cancer": {"tested_on": "pancreatic cancer", "assay": "Administration to a human patient, pancreatic cancer", "type": "in vivo", "settings": "30 g/day; in approximately 1 and a half months", "from_the_text": "In approximately 1 and a half months, the patient recovered."}, "ketosis": {"tested_on": "ketosis", "assay": "Administration to bovines, ketosis (obese syndrome)", "type": "in vivo, bovine", "settings": "100 g/day mesothiol 10 days before delivery, then 100g/day of CPL in combination for 7 days after delivery", "protocol": "For 10 days before the expected date of delivery, 100 g/day of mesothiol was administered in bovines with ketosis."}, "hepatitis C": {"tested_on": "hepatitis C", "assay": "Administration to a human patient, hepatitis C", "type": "in vivo", "settings": "person; 20 g/day for 16 months"}, "uterine cervical cancer": {"tested_on": "uterine cervical cancer", "type": "in vivo, human", "settings": "ingesting CPL", "from_the_text": "In the case of elderly people whose metabolic functions are weaker, ingesting a large amount of a drug often causes adverse reactions and invites risks. […] This patient was taking a strong painkiller when fighting against cancer, which could be replaced by a common painkiller after taking CPL."}, "mastitis": {"tested_on": "mastitis", "assay": "Administration to bovines, mastitis", "type": "in vivo, bovine", "protocol": "If an antibiotic drug is administered as usual, it takes at least one week after CR to make shipment of milk from the bovines, resulting in loss of 70,000-100,000 yen per bovine. […] Thus, the invention can contribute to dairy managerial economies."}, "pyruvic acid kinase": {"tested_on": "pyruvic acid kinase", "assay": "Inhibition of pyruvic acid kinase activity", "type": "biochemical", "settings": "enzyme of the anaerobic glycolytic pathway", "from_the_text": "Morphologically, it causes vacuolation, and the expansion of the cytoplasm of cells, disintegration and aggregation of the nucleus. […] These are considered to inhibit not only the synthesis of ATP but also the actions of mRNA and be involved in the synthesis of RNA and DNA, and the generation of intracellular energy by acting on the metabolism of the intracellular organelle such as rough-surfaced endoplasmic reticulum, smooth-surfaced endoplasmic reticulum, ribosome, Golgi apparatus, etc., and as a result, controlling the metabolism of the cells, influencing the synthesis of proteins/glycoprotein, intracellular lipid metabolism, and movement and transport of ions. […] Morphologically, in the case that cells end up degenerating, the degeneration generally changes first to the nucleus followed by the cytoplasm."}, "pneumonia": {"tested_on": "pneumonia", "assay": "Administration to bovine, pneumonia", "type": "in vivo", "settings": "20 g/day for 1-2 days"}, "constipation": {"tested_on": "constipation", "assay": "Bowel movement and constipation during ingestion", "type": "in vivo, human", "settings": "CPL ingestion; laxative discontinued"}, "ovarian cyst": {"tested_on": "ovarian cyst", "assay": "Administration to human patients, ovarian cyst (ultrasonography, MRI)", "type": "in vivo", "from_the_text": "A case of a patient whose uterus was extirpated due to uterine myoma. This patient has had two celitomies with a caesarean section. They received an examination for cancer because abnormal bleeding has continued recently. […] Moreover, a prominent part was found in part of the cyst and it was suspected to be malign (Photograph (1)).\nThe size of the ovarian cyst measured with ultrasonography carried out a few days later was reduced down to approximately 4 cm (Photograph (2)).\nA case of a patient whose wedding day was drawing close. […] In consideration that hormone abnormalities were the cause, follow-ups were made for 2-3 weeks. Carrying out a subsequent examination, the ovary was further swollen to 6.5 cm (Photograph 5)."}, "colon cancer": {"tested_on": "colon cancer", "assay": "Administration to a human patient, colon cancer", "type": "in vivo", "settings": "person"}, "liver cancer": {"tested_on": "liver cancer", "assay": "Administration to human patients, liver cancer", "type": "in vivo", "settings": "male"}, "endometriosis": {"tested_on": "endometriosis", "assay": "Administration to human patients, endometriosis", "type": "in vivo"}, "breast cancer": {"tested_on": "breast cancer", "assay": "Administration to human patients, breast cancer", "type": "in vivo", "settings": "20 g/day for 210 days", "from_the_text": "After extirpation, metastasized to the eye.\nperson, metastasized to the bone marrow."}, "[1]": {"assay": "Examinations after ingestion by healthy subjects and long-term patients", "type": "in vivo, human"}, "subclavian lymphoma": {"tested_on": "subclavian lymphoma", "assay": "Administration to a human patient, subclavian lymphoma", "type": "in vivo", "settings": "female, 50 g/day for 90 days"}, "[2]": {"tested_on": "bone-thinning disease osteoporosis", "assay": "Administration to a human patient, osteoporosis", "type": "in vivo", "settings": "person; 6 g/day for 180 days"}, "tongue cancer": {"tested_on": "tongue cancer", "assay": "Administration to a human patient, tongue cancer", "type": "in vivo", "settings": "person; 20 g/day for 120 days"}, "infertility": {"tested_on": "infertility", "assay": "Administration to human patients, infertility", "type": "in vivo"}, "[3]": {"tested_on": "infantile asthma, atopic dermatitis", "assay": "Administration to a child, infantile asthma, atopic dermatitis", "type": "in vivo, human", "settings": "CPL solution plus spraying agent, 15 g/day for 40 days, 10 g/day for next 140 days", "protocol": "In addition to the said solution, a spraying agent was used. The said spraying agent was prepared by filling a spraying container with a solution, which was prepared by further diluting by a flux the ointment manufactured by dissolving cyclic polylactic acids in a flux such as propylene glycol, etc. before they solidify, which was described in the <Example of manufacturing> section."}, "laryngeal cancer": {"tested_on": "laryngeal cancer", "assay": "Administration to a human patient, laryngeal cancer", "type": "in vivo", "settings": "person; 20 g/day for 150 days"}}}
{"substance": "Cyclic Poly-lactate [CPL]", "values": [{"measurement": "outcome of patient with pancreatic cancer considered incurable", "setting": "pancreatic cancer", "result": "recovered"}, {"measurement": "level of γGTP", "setting": "ketosis; 100 in onset", "result": 35}, {"measurement": "level of GOT", "setting": "ketosis; 549 in onset", "result": 83}, {"measurement": "condition of hepatitis C patient", "setting": "hepatitis C", "result": "satisfactory condition"}, {"measurement": "shadow on the liver", "setting": "hepatitis C", "result": "disappeared"}, {"measurement": "pain of patients suffering from advanced cancer", "setting": "uterine cervical cancer", "result": "diminishes the pain rapidly"}, {"measurement": "response of mastitis", "setting": "mastitis; oral, 50 g of CPL (powder) dissolved in water", "result": "Complete response"}, {"measurement": "milking from the other normal udders during treatment", "setting": "mastitis; treatment using CPL alone", "result": "available"}, {"measurement": "activity of pyruvic acid kinase", "setting": "pyruvic acid kinase", "result": "inhibits"}, {"measurement": "symptom of pneumonia", "setting": "pneumonia", "result": "improved"}, {"measurement": "defecation of patients suffering from constipation", "setting": "constipation", "result": "improved defecation"}, {"measurement": "ovarian cyst at preoperative MRI examination", "setting": "ovarian cyst; patient, 30-40 g/day until operation", "result": "disappeared"}, {"measurement": "size of ovarian cyst by ultrasonography", "setting": "ovarian cyst; patient, 30-40 g/day, a few days later, initially approximately 5 cm", "result": "approximately 4 cm"}, {"measurement": "ovarian cyst after further administration", "setting": "ovarian cyst; person, 2 weeks after further administration", "result": "disappeared completely"}, {"measurement": "size of ovarian cyst by ultrasonography", "setting": "ovarian cyst; person, CPL for 2 weeks, 6.5 cm before", "result": "below 4 cm"}, {"measurement": "colon tumors of 2 cm in size (Stage 2-3)", "setting": "colon cancer; 20 g/day for 150 days, in 2 weeks", "result": "disappeared"}, {"measurement": "examination for colon cancer", "setting": "colon cancer; examination 5 months later", "result": "No abnormalities were found"}, {"measurement": "outcome of liver cancer", "setting": "liver cancer; 20 g/day for 150 days", "result": "cured"}, {"measurement": "outcome of liver cancer originated from liver cirrhosis", "setting": "liver cancer; 20 g/day for 210 days", "result": "cured"}, {"measurement": "CA125 of tumor marker", "setting": "endometriosis; endometriosis patients, in the majority of the patients", "result": "improves"}, {"measurement": "symptoms of menorrhagia", "setting": "endometriosis; person, 10 g/day orally", "result": "ameliorated"}, {"measurement": "menstrual pain", "setting": "endometriosis; person, 10 g/day orally, next menstruation", "result": "ameliorated"}, {"measurement": "course of breast cancer metastasized to the eye", "setting": "breast cancer; after extirpation", "result": "satisfactory progress"}, {"measurement": "tumor marker", "setting": "breast cancer; person, breast cancer metastasized to bone marrow, decreased from 200", "result": 5}, {"measurement": "effect on results of examinations (physical findings, hematological/biochemical tests, urine and faeces)", "setting": "[1]; healthy subjects, 6 g/day", "result": "not to affect"}, {"measurement": "effect on biogenic basic functions (appetite, sleep, changes in weight, libido)", "setting": "[1]; human, in vivo", "result": "no effect"}, {"measurement": "abnormal findings from examinations", "setting": "[1]; patients who have taken 6 g/day for 3-5 years", "result": "no abnormal findings at all"}, {"measurement": "CEA", "setting": "subclavian lymphoma; decreased from 20.4", "result": 5.4}, {"measurement": "CA 15", "setting": "subclavian lymphoma; decreased from 70", "result": 20.3}, {"measurement": "bone density", "setting": "[2]", "result": "increased"}, {"measurement": "outcome of tongue cancer", "setting": "tongue cancer", "result": "completely disappeared"}, {"measurement": "number of patients who conceived", "setting": "infertility; 10 patients with infertility, 6-9 g/day", "result": 8}, {"measurement": "lower abdominal pain", "setting": "infertility; person, endometriosis, ovarian cyst, 6 g/day, within the next 2-3 days", "result": "ameliorated"}, {"measurement": "conception", "setting": "infertility; person, after endometriosis symptoms ameliorated", "result": "naturally conceived"}, {"measurement": "asthmatic seizures", "setting": "[3]", "result": "stopped"}, {"measurement": "eczema on the back and face", "setting": "[3]", "result": "disappeared"}, {"measurement": "itchiness", "setting": "[3]", "result": "cured"}, {"measurement": "outcome of laryngeal cancer", "setting": "laryngeal cancer", "result": "cured"}]}
